Source: PubChem BioAssay AID1259408 (Genetic Toxicology Data Bank (GENE-TOX), 2018)
Calls of active or inactive are those of the source. How the calls were made is not given here.

Test system: GENE-TOX genotoxicity assays, various organisms and cells
Assay: GENE-TOX mutagenicity studies
Conditions: for call: Assay Type: In vivo carcinogenicity studies
[1] = Species/Cell Type: Escherichia coli polA (W3119 vs P3478), Assay Type: Rec-assay, DNA effects (bacterial DNA repair), Assay Code: RE1T, Evaluation Type: Evaluation A (Pre-1980)
[2] = Species/Cell Type: Mouse, Sex: Male, Assay Type: Sperm morphology, Assay Code: SPI-, Evaluation Type: Evaluation A (Pre-1980)
[3] = Species/Cell Type: Human, Assay Type: Sister-chromatid exchange (SCE) in vitro, Assay Code: SC1T, Evaluation Type: Evaluation B (Post-1980)
[4] = Species/Cell Type: Nonhuman, Assay Type: Sister-chromatid exchange (SCE) in vitro, Assay Code: SC2+, Evaluation Type: Evaluation B (Post-1980)
[5] = Species/Cell Type: Salmonella typhimurium (one or more of the five standard strains: TA98, TA100, TA1535, TA1537, and TA1538), Assay Type: Histidine reverse gene mutation, Ames assay, Assay Code: SAL+, Evaluation Type: Evaluation A (Pre-1980)
[6] = Species/Cell Type: Mammalian polychromatic erythrocytes, Assay Type: Micronucleus test, chromosome aberrations, Assay Code: MNTT, Evaluation Type: Evaluation A (Pre-1980)
[7] = Species/Cell Type: Rodents, Sex: Male, Assay Type: Dominant lethal test, Assay Code: DLT-, Evaluation Type: Evaluation A (Pre-1980)
[8] = Species/Cell Type: Nonhuman, Assay Code: CCG+, Evaluation Type: Evaluation A (Pre-1980)
[9] = Species/Cell Type: Salmonella typhimurium (one or more of the five standard strains: TA98, TA100, TA1535, TA1537, and TA1538), Assay Type: Histidine reverse gene mutation, Ames assay, Assay Code: SALT, Evaluation Type: Evaluation A (Pre-1980)
[10] = Species/Cell Type: Nonhuman, Assay Type: Sister-chromatid exchange (SCE) in vivo, Assay Code: SC3T, Evaluation Type: Evaluation B (Post-1980)
[11] = Species/Cell Type: Salmonella typhimurium (one or more of the five standard strains: TA98, TA100, TA1535, TA1537, and TA1538), Assay Type: Histidine reverse gene mutation, Ames assay, Assay Code: SAL-, Evaluation Type: Evaluation A (Pre-1980)
[12] = Species/Cell Type: Nonhuman, Assay Code: CCGT, Evaluation Type: Evaluation A (Pre-1980)
[13] = Species/Cell Type: Human diploid fibroblasts, Assay Type: Unscheduled DNA synthesis (UDS) in vitro, DNA effects, Assay Code: UDH-, Evaluation Type: Evaluation A (Pre-1980)
[14] = Species/Cell Type: Mouse (BALB/c-3T3) cells, Assay Type: Cell transformation, Assay Code: CTB-, Evaluation Type: Evaluation A (Pre-1980)
[15] = Species/Cell Type: Nonhuman, Assay Type: Chromosome aberrations in vitro, Assay Code: CY&-, Evaluation Type: Evaluation A (Pre-1980)
[16] = Species/Cell Type: Nonhuman, Assay Type: Sister-chromatid exchange (SCE) in vitro, Assay Code: SC2-, Evaluation Type: Evaluation A (Pre-1980)
[17] = Species/Cell Type: Nonhuman, Assay Type: Sister-chromatid exchange (SCE) in vivo, Assay Code: SC3+, Evaluation Type: Evaluation B (Post-1980)
[18] = Species/Cell Type: Syrian hamster embryo (SHE) cells, Assay Type: Cell transformation, clonal assay, Assay Code: CTC-, Evaluation Type: Evaluation A (Pre-1980)
[19] = Species/Cell Type: Human lymphocytes, Assay Type: Sister-chromatid exchange (SCE) in vitro, Assay Code: SCL+, Evaluation Type: Evaluation B (Post-1980)
[20] = Species/Cell Type: Human, Assay Type: Sister-chromatid exchange (SCE) in vitro, Assay Code: SC1+, Evaluation Type: Evaluation B (Post-1980)
[21] = Species/Cell Type: Nonhuman, Assay Type: Sister-chromatid exchange (SCE) in vitro, Assay Code: SC2+D, Dose Response: With dose response, Evaluation Type: Evaluation B (Post-1980)

Compound: NC(N)=O
- mutagenic call (Species/Cell Type: Allium cepa, Assay Type: Chromosome aberrations, Assay Code: ALC+D, Dose Response: With dose response, Evaluation Type: Evaluation A (Pre-1980)): active; positive
- mutagenic call [1]: no conclusion
- mutagenic call (Species/Cell Type: Glycine max (soybean), Assay Type: Gene mutation, Assay Code: GLM-, Evaluation Type: Evaluation A (Pre-1980)): inactive; negative
- mutagenic call (Species/Cell Type: Human lymphocytes or leukocytes, Assay Type: Chromosome aberrations in vitro, Assay Code: CY7+, Evaluation Type: Evaluation A (Pre-1980)): active; positive
- mutagenic call [2]: inactive; negative
- mutagenic call (Species/Cell Type: Plant, Assay Type: Micronucleus test, chromosome aberrations, Assay Code: MNP+, Evaluation Type: Evaluation A (Pre-1980)): active; positive

Compound: O=C1O[C@H]([C@H](O)CO)C(O)=C1O
- mutagenic call [3]: no conclusion

Compound: CN(O)C(=O)c1ccc2ccccc2c1
- mutagenic call [4]: active; positive

Compound: CCOC(=O)COc1ccc(Cl)cc1CSC(=N)N
- mutagenic call (Species/Cell Type: Saccharomyces cerevisiae, Assay Type: Reverse gene mutation, Assay Code: YERT, Evaluation Type: Evaluation A (Pre-1980)): no conclusion

Compound: CC1CN(/N=C/c2ccc([N+](=O)[O-])o2)C(=O)N1 (configuration not stated)
- mutagenic call [5]: active; positive

Compound: Nc1cc([N+](=O)[O-])ccc1O
- mutagenic call [6]: no conclusion
- mutagenic call (Species/Cell Type: Neurospora crassa, Assay Type: Aneuploidy, chromosome aberrations, Assay Code: NEN-, Evaluation Type: Evaluation A (Pre-1980)): inactive; negative
- mutagenic call [7]: inactive; negative

Compound: Nc1ccc(N=Nc2ccccc2)c(N)n1
- call [8]: active; positive

Compound: CC(C)(C)N(CCCCO)N=O
- mutagenic call [9]: no conclusion

Compound: c1ccc2c(c1)Cc1ccccc1-2
- mutagenic call [10]: no conclusion
- mutagenic call [11]: inactive; negative

Compound: Oc1ccc2c(c1)cc1ccc3cccc4ccc2c1c34
- mutagenic call (Species/Cell Type: Chinese hamster lung (V79) cells, Assay Type: Forward gene mutation at the HPRT or ouabain locus, Assay Code: V79-*, Activation: With metabolic activation, Evaluation Type: Evaluation A (Pre-1980)): inactive; negative
- call [12]: no conclusion
- mutagenic call [9]: no conclusion

Compound: C=COCC
- mutagenic call [4]: active; positive

Compound: c1ccc2c(c1)ccc1ccccc12
- mutagenic call (Species/Cell Type: Allium cepa, Assay Type: Chromosome aberrations, Assay Code: ALC+, Evaluation Type: Evaluation A (Pre-1980)): active; positive
- mutagenic call (Species/Cell Type: Escherichia coli polA (W3110 vs P3478), Assay Type: Rec-assay, DNA effects (bacterial DNA repair), Assay Code: RE2-, Evaluation Type: Evaluation A (Pre-1980)): inactive; negative
- mutagenic call [1]: no conclusion
- mutagenic call (Species/Cell Type: Fischer rat embryo (RLV/1706) cells, Assay Type: Cell transformation, viral enhanced, Assay Code: CTRT, Evaluation Type: Evaluation A (Pre-1980)): no conclusion
- mutagenic call [13]: inactive; negative
- mutagenic call [6]: no conclusion
- mutagenic call [14]: inactive; negative
- mutagenic call (Species/Cell Type: Mouse embryo (AKR/ME) cells, Assay Type: Cell transformation, Assay Code: CTK+, Evaluation Type: Evaluation A (Pre-1980)): active; positive
- mutagenic call (Species/Cell Type: Mouse prostate cells, Assay Type: Cell transformation, Assay Code: CTM-, Evaluation Type: Evaluation A (Pre-1980)): inactive; negative
- mutagenic call [15]: inactive; negative
- call [12]: no conclusion
- mutagenic call [16]: inactive; negative
- mutagenic call [17]: active; positive
- mutagenic call (Species/Cell Type: Nonhuman, Assay Type: Sister-chromatid exchange (SCE) in vivo, Assay Code: SC3T, Evaluation Type: Evaluation A (Pre-1980)): no conclusion
- mutagenic call (Species/Cell Type: Saccharomyces cerevisiae, Assay Type: Mitotic recombination or gene conversion, Assay Code: YEH-, Evaluation Type: Evaluation A (Pre-1980)): inactive; negative
- mutagenic call [11]: inactive; negative
- mutagenic call (Species/Cell Type: Salmonella typhimurium, Assay Type: Forward and reverse gene mutation, host-mediated assay, Assay Code: HMA-, Evaluation Type: Evaluation A (Pre-1980)): inactive; negative
- mutagenic call [18]: inactive; negative

Compound: Cc1cc2ccccc2c2c(F)cc3ccccc3c12
- mutagenic call [9]: no conclusion

Compound: CCc1ccccc1
- mutagenic call [19]: active; positive
- mutagenic call [20]: active; positive
- mutagenic call (Species/Cell Type: Syrian hamster embryo (SA7/SHE) cells, Assay Type: Cell transformation, viral enhanced, Assay Code: CT7-, Evaluation Type: Evaluation A (Pre-1980)): inactive; negative

Compound: CCCCNC(N)=O
- mutagenic call [15]: inactive; negative
- mutagenic call (Species/Cell Type: Nonhuman, Assay Type: Sister-chromatid exchange (SCE) in vitro, Assay Code: SC2+, Evaluation Type: Evaluation A (Pre-1980)): active; positive

Compound: Cc1ccc2c(C)c(C)[nH]c2c1
- mutagenic call [19]: active; positive
- mutagenic call [20]: active; positive

Compound: CC(=O)Nc1ccc(-c2ccccc2)cc1
- mutagenic call [13]: inactive; negative

Compound: CC1CCOS(=O)(=O)O1 (configuration not stated)
- mutagenic call [5]: active; positive
- mutagenic call (Species/Cell Type: Salmonella typhimurium, Assay Type: Forward and reverse gene mutation, host-mediated assay, Assay Code: HMA+, Evaluation Type: Evaluation A (Pre-1980)): active; positive

Compound: CCCCCCCCCCCCCC(=O)O[C@@H]1[C@@H](C)[C@@]2(O)[C@@H](C=C(CO)C[C@]3(OC)C(=O)C(C)=C[C@@H]23)[C@@H]2C(C)(C)[C@]12OC(C)=O
- mutagenic call [16]: inactive; negative
- mutagenic call (Species/Cell Type: Nonhuman, Assay Type: Sister-chromatid exchange (SCE) in vitro, Assay Code: SC2T, Evaluation Type: Evaluation B (Post-1980)): no conclusion

Compound: C#C[C@]1(O)CC[C@H]2[C@@H]3CCc4cc(O)ccc4[C@H]3CC[C@@]21C
- mutagenic call (Species/Cell Type: Fischer rat embryo (RLV/1706) cells, Assay Type: Cell transformation, viral enhanced, Assay Code: CTR+, Evaluation Type: Evaluation A (Pre-1980)): active; positive
- mutagenic call [14]: inactive; negative
- call [8]: active; positive
- mutagenic call [18]: inactive; negative

Compound: CCCCN(CCC(C)O)N=O (configuration not stated)
- mutagenic call [5]: active; positive

Compound: Cc1ccc(S(=O)(=O)NC(=O)N[C@H]2[C@H]3CC[C@@](C)([C@H]2O)C3(C)C)cc1
- mutagenic call [10]: no conclusion

Compound: Nc1cccc2c1C(=O)c1c(NCCNCCO)ccc(NCCNCCO)c1C2=O
- mutagenic call [21]: active; positive

Compound: O=C1CN(/N=C/c2ccc([N+](=O)[O-])o2)C(=O)N1
- mutagenic call (Species/Cell Type: Escherichia coli WP2, Assay Type: Tryptophan reverse gene mutation, Assay Code: WP2+, Evaluation Type: Evaluation A (Pre-1980)): active; positive
- mutagenic call (Species/Cell Type: Escherichia coli WP2 UVRA, Assay Type: Tryptophan reverse gene mutation, Assay Code: WPU+D, Dose Response: With dose response, Evaluation Type: Evaluation A (Pre-1980)): active; positive
- mutagenic call [13]: inactive; negative
- mutagenic call [3]: no conclusion
- mutagenic call (Species/Cell Type: Human, Sex: Male, Assay Type: Sperm morphology, Assay Code: SPHT, Evaluation Type: Evaluation A (Pre-1980)): no conclusion
- mutagenic call (Species/Cell Type: Mammalian polychromatic erythrocytes, Assay Type: Micronucleus test, chromosome aberrations, Assay Code: MNT+, Evaluation Type: Evaluation A (Pre-1980)): active; positive
- mutagenic call [2]: inactive; negative
- call [12]: no conclusion
- mutagenic call [21]: active; positive
- mutagenic call [17]: active; positive
- mutagenic call [7]: inactive; negative
- mutagenic call (Species/Cell Type: Saccharomyces cerevisiae, Assay Type: Forward and reverse gene mutation, mitotic recombination and gene conversion, host-mediated assay, Assay Code: HME+, Evaluation Type: Evaluation A (Pre-1980)): active; positive
- mutagenic call (Species/Cell Type: Saccharomyces cerevisiae, Assay Type: Mitotic recombination or gene conversion, Assay Code: YEC+*, Activation: With metabolic activation, Evaluation Type: Evaluation A (Pre-1980)): active; positive
- mutagenic call [5]: active; positive
- mutagenic call (Species/Cell Type: Salmonella typhimurium and Saccharomyces cerevisiae, Assay Type: Forward and reverse gene mutation, mitotic recombination and gene conversion, DNA effects, body fluid assay, Assay Code: BFG+, Evaluation Type: Evaluation A (Pre-1980)): active; positive

Compound: c1ccc(N=Nc2ccccc2)cc1
- call [8]: active; positive
- mutagenic call [21]: active; positive
- mutagenic call (Species/Cell Type: Salmonella typhimurium (one or more of the five standard strains: TA98, TA100, TA1535, TA1537, and TA1538), Assay Type: Histidine reverse gene mutation, Ames assay, Assay Code: SAL+*, Activation: With metabolic activation, Evaluation Type: Evaluation A (Pre-1980)): active; positive
